pKd, pKi: −log10 of the molar value. Bridge positions count the residues as written; N and C are the ends. Ends that are not written are not given here.
Columns and labels:
6-OHDA-treated cells = details: cited from earlier work
Kv channels = details: cited from earlier work
[1] = Thermal stability by CD spectroscopy; format: physicochemical; details: CD spectra and residual trypsin-inhibitory activity
Procedure: Figure 5 Evaluation of the thermal stability of peptides in deionized water via CD spectroscopy. Recordings of the CD spectra of HCIQ2c1 (a), HMIQ3c1 (b), HCIQ4c7 (c), and HCIQ1c9 (d) were conducted in the far UV region (190–240 nm) after the solutions were incubated over a temperature range from 25 °C to 100 °C for 20–25 min.
Circular dichroism (CD) spectra were recorded on a Chirascan-Plus CD spectropolarimeter (Applied Photophysics, Leatherhead, UK) in quartz cuvettes with an optical path length of 0.1 cm for the peptide spectrum region. The peptides were dissolved in deionized water ([…]) and incubated at temperatures ranging from 25 °C to 100 °C for 20–25 min before recording the CD spectra. The secondary structure elements were calculated using the Provencher–Glockner method using advanced Provencher calculation programs from the CDPro software package (Leatherhead, UK).

Recombinant human P2X7R = target: T1, Recombinant human P2X7R (Homo sapiens, UniProt Q99572); assay: SPR binding to immobilized P2X7R extracellular domain; details: Biacore 3000, CM5 chip, P2X7R a.a. 47–334, HBS-N pH 7.4, 25 °C, peptide 5–100 μM, two-state (conformational change) binding model
T1 construct: complete extracellular domain, 36.8 kDa; purchased Abbexa LTD, Cambridge, UK
T1 sequence (Q99572 47-334): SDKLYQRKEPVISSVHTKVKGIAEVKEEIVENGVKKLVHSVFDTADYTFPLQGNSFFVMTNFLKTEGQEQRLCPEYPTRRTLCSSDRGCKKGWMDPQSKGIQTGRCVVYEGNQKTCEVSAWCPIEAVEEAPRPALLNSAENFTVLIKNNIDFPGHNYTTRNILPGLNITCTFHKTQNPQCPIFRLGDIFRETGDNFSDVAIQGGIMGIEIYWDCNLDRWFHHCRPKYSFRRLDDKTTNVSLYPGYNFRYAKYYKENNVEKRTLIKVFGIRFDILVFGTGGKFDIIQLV
Procedure: SPR analyses were performed based on using a Biacore 3000 optical biosensor (GE Healthcare, USA) running under the program “Biacore 3000 Control Software v.1.0”. Recombinant human P2X7R (sequence positions of 47–334 a.a.; complete extracellular domain, 36.8 kDa) (Abbexa LTD, Cambridge, UK) was covalently immobilized on the carboxymethylated surface of the Biacore CM5 sensor chip (Cytiva, Chicago, IL, USA), then activated by the 1:1 mixture of 0.2 M 1-ethyl-3-(3-dimethylaminopropyl)carbodiimide hydrochloride (EDC) and 0.05 M N-hydroxysuccinimide (NHS) via the injection of receptor solution (15 μg/mL) in 10 mM sodium acetate (pH 5.0) for 10 min at a flow rate of 5 μL/min. The reference channel without immobilized P2X7R was used to correct the effects of the non-specific binding of peptides to the chip surface. The quantity of the immobilized hP2X7R equaled 12300 RU (resonance units, 1 RU corresponds to 1 pg receptor bound per mm^2 of chip surface). HBS-N (10 mM HEPES, 150 mM NaCl, pH 7.4) (Cytiva, USA) was used as a running buffer for SPR assays. Peptide solutions in the HBS-N buffer over a concentration range of 5–100 μM were passed through biosensor channels (working and reference) at a flow rate of 10 µL/min for 3 min at 25 °C. Dissociation of the formed peptide–P2X7R complexes was registered at the same flow rate for no less than 6 min from the moment of sample injection. […]

[2] = target: recombinant human P2X7R (47-334, complete extracellular domain) (human) (UniProt Q99572)
[3] = target: recombinant human P2X7R (47-334, complete extracellular domain) (human) (UniProt Q99572); remark: listed apart in the source
[4] = calculated using the CDSSR algorithm [54], cited from earlier work
From the text: Table 1 The peptide secondary structural elements. | column: α-Helix / I; α-Helix / II; α-Helix / III; β-Structure / I; β-Structure / II; β-Structure / III; β-Turn; Unordered Structure

trypsin [5] = target: T2, trypsin (Bos taurus, UniProt P00760); assay: Residual trypsin-inhibitory activity after heating; format: biochemical; details: after heating to 100 °C; 7 μM peptide, 1.2 mM BAPNA, 37 °C, three parallel experiments
T2 sequence (P00760 24-246): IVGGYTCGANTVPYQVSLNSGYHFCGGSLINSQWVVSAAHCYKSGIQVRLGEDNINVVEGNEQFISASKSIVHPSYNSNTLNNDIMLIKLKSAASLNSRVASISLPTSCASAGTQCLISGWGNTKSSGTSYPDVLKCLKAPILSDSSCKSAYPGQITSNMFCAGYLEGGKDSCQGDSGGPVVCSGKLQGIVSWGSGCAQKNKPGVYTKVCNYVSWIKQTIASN
Procedure: Figure 6 The effects of temperature on the trypsin-inhibitory activity levels of peptides. Peptides were incubated at the temperatures for 30 min and their residual activities were measured.
The temperature influence on the activity levels of peptides was assessed by measuring their residual inhibitory activity levels. After preincubation at temperatures ranging from 25 to 100 °C for 25 min, the peptide solutions were added to trypsin solution and the reaction mixtures were incubated for 10 min at 37 °C, then 1.2 mM BAPNA was added, followed by incubation at 37 °C for 30 min. The final concentration of the peptides was 7 μM. Substrate hydrolysis was measured at 410 nm. The residual activity was calculated based on the results of three parallel experiments according to the following equation [60]:% = (1 − residual enzyme activity/enzyme activity without inhibitor) × 100

TRPV1 channels = assay: Electrophysiology on TRPV1 channels expressed in Xenopus laevis oocytes; format: cell-based
Procedure: Oocytes were injected with 50 nL of cRNA at a concentration of 1 ng/nL using a micro-injector (Drummond Scientific, Broomall, PA, USA).

P2X7R [6] = format: cell-based, murine
Procedure: Neuro-2a cells were pre-incubated with studied peptides for 1 h at 37 °C with 5% CO2. Then, cells were washed twice with culture medium and loaded with 5 μM Fluo-8 dye (Sigma-Aldrich, St. Louis, MO, USA) and 1 μM Pluronic F-127 (Sigma-Aldrich, St. Louis, MO, USA) and incubated for 40 min at room temperature in HBSS saline at pH 7.4. Then, the cells were washed two times with the same solution but without the fluorescent dye and were incubated for 20–30 min at room temperature in the dark. In some experiments, Ca^2+-free medium was used. Here, 140 mM NaCl, 5 mM KCl, 0.8 mM MgCl2, 10 mM glucose, 10 mM HEPES, 5 mM EGTA, pH 7.4. ATP (1 mM final concentration) were added using a robotic microinjector (20 μL/well), then 10 s later the baseline recording and additional readings were taken up to 50 s at 1 s intervals. The standard P2X7R inhibitor A438079 (Sigma-Aldrich, St. Louis, MO, USA) was used as the inhibitory control. Ionomycin (Sigma-Aldrich, St. Louis, MO, USA) was used to generate a generic calcium signal in cells. Fluo-8 was excited at 488 nm, and the emission at 520 nm was measured with a PHERAstar plate reader (BMG LABTECH, Ortenberg, Germany).

P2X7R [7] = assay: ATP-induced YO-PRO-1 uptake in Neuro-2a cells; format: cell-based, murine
Procedure: Figure 11 The effects of the peptides on ATP-induced Neuro-2a cell viability and activation of P2X7R. (a) Impact of the peptides on Neuro-2a cell viability in the presence of 4 mM ATP. The peptides were tested at concentrations of 0.01, 0.1, and 1.0 μM. Cells were incubated with peptides for 1 h at 37 °C, then for 48 h with ATP. (b) Effects of the peptides (0.01, 0.1, and 1.0 μM) on YO-PRO-1 uptake in Neuro-2a cells. ATP was used as a P2X7R agonist. A438079 (10 μM) was used as a standard inhibitor of P2X7R. The peptide effects were evaluated against the effects of ATP. The data are shown as means ± SE; *—p < 0.05 compared to the effect of ATP alone.
For the uptake measurements of the large cationic dye YO-PRO-1, the peptides at final concentrations of 0.01, 0.1, and 1.0 μM were added to the culture medium with Neuro-2a cells and further incubated for 1 h at 37 °C with 5% CO2. Then, the cells were washed once with Hanks’ balanced salt solution (HBSS) (140 mM NaCl, 5 mM KCl, 0.8 mM MgCl2, 2 mM CaCl2, 10 mM glucose, 10 mM HEPES, pH 7.4) and filled with 180 μL of the same buffer. YO-PRO-1 (Sigma-Aldrich, St. Louis, MO, USA) was loaded into the wells to a final concentration of 5 μM, the cells were incubated for 15 min at 37 °C, then ATP was added to a final concentration of 4 mM and the plates were incubated for an additional 10 min. Then, the cells were washed three times with the buffer solution and the fluorescence intensity levels were measured with a PHERAstar FS plate reader (BMG, Germany) at λex = 480 nm and λem = 520 nm. A438079 (10 μM), a standard inhibitor of P2X7R, was used as positive control. The effectiveness of the peptides was evaluated relative to the control with ATP.

Neuro-2a cells = assay: ATP-induced Neuro-2a cell death (MTT); format: cell-based, murine
Procedure: Figure 11 The effects of the peptides on ATP-induced Neuro-2a cell viability and activation of P2X7R. (a) Impact of the peptides on Neuro-2a cell viability in the presence of 4 mM ATP. The peptides were tested at concentrations of 0.01, 0.1, and 1.0 μM. Cells were incubated with peptides for 1 h at 37 °C, then for 48 h with ATP. […] The peptide effects were evaluated against the effects of ATP. The data are shown as means ± SE; *—p < 0.05 compared to the effect of ATP alone. […]
Then, 20 μL of substance solution was loaded into the cells and incubated for 24 h followed by replacement of the medium with tested substances and 100 μL of fresh medium. […] The absorbance of the converted dye formazan was measured using a Multiskan FC microplate photometer (Thermo Scientific, Waltham, MA, USA) at a wavelength of 570 nm [83, 84]. […] Cytotoxic activity was expressed as the percentage of cell viability.
At the end of the preincubation period, the cells were treated with peptides at concentrations of 0.01, 0.1, 1, and 10 μM for 1 h, after which 600 μM paraquat, 10 μM rotenone, 80 μM of 6-OHDA, 1 mM MPP^+, or 4 mM ATP (Sigma-Aldrich, St. Louis, MO, USA) was added. […] Cell viability was measured after 24 h (with paraquat, rotenone and 6-OHDA) or 48 h (with ATP and MPP^+) using the MTT assay [85, 86, 87].

trypsin [8] = assay: enzyme inhibition kinetics (Dixon's method); trypsin 208 nM, substrate BAPNA 0.6 and 1.2 mM, peptide 0-20 uM; three parallel experiments
trypsin [9] = target: trypsin

Sequence of Kunitz-type peptide HCIQ1c9 (A0A6B7FEJ3 15-72 limits assumed): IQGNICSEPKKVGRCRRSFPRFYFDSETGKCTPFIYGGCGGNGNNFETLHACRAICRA

For “HCRG2: Kunitz-type peptide from H. crispa, C0HJU7 (RGICLEPKVVGPCKARIRRFYYDSETGKCTPFIYGGCGGNGNNFETLHACRGICRA; UniProt C0HJU7 1-56, looked up)”, the “effect on ROS production in 6-OHDA-treated cells” value (6-OHDA-treated cells) is listed as “maintained ROS production in 6-OHDA-treated cells at the reference level” and the “activity on Kv channels” value (Kv channels) is listed as “blockers of Kv channels”.
For “IQGNICSEPKKVGRCRGSFPRFYFDSETGKCTPFIYGGCGGNGNNFETLRRCRAICRA (disulfide 6-56, 15-39, 31-52) [HMIQ3c1]”, the “thermostability: retains conformation and biological activity until” value [1] was 90–100 °C and the pKd (Recombinant human P2X7R) was 4.36.
For Kunitz-type peptide HMIQ3c1, the reduction of ATP (4 mM)-induced YO-PRO-1 dye uptake into mouse Neuro-2a cells; peptide at 0.01, 0.1 and 1.0 uM; value at 0.1 uM [2] was 28.1% and the decrease of the stable Ca2+ response (Fluo-8) to 1 mM ATP in mouse Neuro-2a cells pre-incubated with the peptide at 0.1, 1.0 and 10.0 uM; value at 10 uM [3] was 40.6%.
In the case of “SHPI-1: Kunitz-type peptide from Stichodactyla helianthus, UniProtKB P31713 (SICSEPKKVGRCKGYFPRFYFDSETGKCTPFIYGGCGGNGNNFETLHQCRAICRA; UniProt P31713 1-55, looked up)”, the “Unordered Structure” value [4] is listed as 40.0, the β-Turn [4] is listed as 18.2 and the “α-Helix III” value ([4]; summary value) is listed as 20.0. For the same compound, the “β-Structure III” value ([4]; summary value) was 21.8.
With “IQGNICSEPKKVGRCRESFPRFYFDSETGKCTPFIYGGCGGNGNNFETLHACRAICRA (disulfide 6-56, 15-39, 31-52) [HCIQ4c7]” the “decrease in trypsin-inhibitory activity after heating” value (trypsin [5]) was 7%, the “thermostability: retains conformation and biological activity until” value [1] was 90–100 °C and the pKd (Recombinant human P2X7R) was 4.34.
For `Oc1cc2c(cc1O)CN(C(=S)NCCc1ccc(Cl)cc1)CCC2` [capsazepine], the “effect on TRPV1 channels” value (TRPV1 channels; capsazepine 10 µM (antagonist control)) was “blocking of the channels”.
For “HCRG1: Kunitz-type peptide from H. crispa, C0HJU6 (RGICSEPKVVGPCKAGLRRFYYDSETGECKPFIYGGCKGNKNNFETLHACRGICRA; UniProt C0HJU6 1-56, looked up)”, the “effect on ROS production in 6-OHDA-treated cells” value (6-OHDA-treated cells) is listed as “maintained ROS production in 6-OHDA-treated cells at the reference level” and the “activity on Kv channels” value (Kv channels) is listed as “blockers of Kv channels”.
In the case of `COc1cc(CNC(=O)CCCC/C=C/C(C)C)ccc1O` [capsaicin], the “effect on TRPV1 channels” value (TRPV1 channels; capsaicin 2 µM (agonist control)) was “activation of the TRPV1 channels”.
In the case of `Clc1cccc(-c2nnnn2Cc2cccnc2)c1Cl` [A438079], the “decrease in ATP-induced stable calcium response” value (P2X7R [6]; 10 μM, 1 mM ATP, Fluo-8, relative to control, means ± SE) was 47.7 ± 4.4%, the “reduction of ATP-induced YO-PRO-1 uptake” value (P2X7R [7]; 10 μM (standard inhibitor), 4 mM ATP, means ± SE) was 18.5 ± 3.2% and the “increase in viability of ATP-treated cells” value (Neuro-2a cells; 10 μM, pre-incubation, 4 mM ATP 48 h, vs ATP alone) was 21.3 ± 0.5%.
In the case of `Nc1ncnc2c1ncn2[C@@H]1O[C@H](COP(=O)(O)OP(=O)(O)OP(=O)(O)O)[C@@H](O)[C@H]1O` [ATP, adenosine-5’-triphosphate], the “effect on [Ca2+]i” value (P2X7R [6]; ATP 1 mM) was “large sustained increase in [Ca^2+]i”, the “increase in YO-PRO-1 dye penetration” value (P2X7R [7]; ATP 4 mM) was 49.4 ± 5.9% and the “total dead cells after ATP” value (Neuro-2a cells; ATP 4 mM, 48 h, compared with control cells) was “up to 30.15 ± 0.68%”.
Work on Kunitz-type peptide HCIQ1c9 yielded a pKi (trypsin [8]) of 6.20 and a decrease of trypsin-inhibitory activity (BAPNA hydrolysis) of 7 uM peptide after preincubation at 60 to 100 °C (trypsin [9]) of 30 to 70 % decrease.
With Kunitz-type peptide HCIQ4c7 the reduction of ATP (4 mM)-induced YO-PRO-1 dye uptake into mouse Neuro-2a cells; peptide at 0.01, 0.1 and 1.0 uM; value at 1 uM [2] was 28.5%, the decrease of trypsin-inhibitory activity (BAPNA hydrolysis) of 7 uM peptide after preincubation at 25 to 100 °C; value after 100 °C (trypsin [9]) was 7 % decrease and the decrease of the stable Ca2+ response (Fluo-8) to 1 mM ATP in mouse Neuro-2a cells pre-incubated with the peptide at 0.1, 1.0 and 10.0 uM; value at 10 uM [3] was 59.1%.

Reference: article PMC9103184, “Kunitz-Type Peptides from Sea Anemones Protect Neuronal Cells against Parkinson’s Disease Inductors via Inhibition of ROS Production and ATP-Induced P2X7 Receptor Activation” (International Journal of Molecular Sciences, 2022)
